In patent US20170051034A1 (Novo Nordisk A/S, priority 2010, published 2017):
Numbered stars: 1 amine (or outer) side, 2 acyl side, 3 side chain; on linkers, the order of the positions; unused ones are H or OH. Side chains are listed from the residue outwards. Peptide text beside a SMILES is read from it. * marks the point of attachment. C20 diacid = O=C(O)CCCCCCCCCCCCCCCCCCC(=O)*; C16 diacid = O=C(O)CCCCCCCCCCCCCCC(=O)*; γGlu = O=C(O)[C@H](CCC(=O)[*:2])N[*:1]; AEEA = NCCOCCOCC(=O)O

Assays:
glucagon receptor = glucagon receptor (Homo sapiens, UniProt P47871); test: cell-based
Protocol: The cells (14000 per well) were incubated (37° C., 5% CO2) overnight in 384-well plates. Next day the cells were loaded with a calcium responsive dye that only distributed into the cytoplasm. Probenecid, an inhibitor of the organic anion transporter, was added to prevent the dye from leaving the cell. A PDE inhibitor was added to prevent formatted cAMP from being degraded. […] End point data were collected after 6 minutes. An increase in intracellular cAMP was proportional to an increased in calcium concentrations in the cytoplasm. […] EC50-values were calculated in Prism5.

[1] = ThT fibrillation assay (lag time and recovery); assay type: physicochemical; conditions: Table 2
Protocol: This has traditionally been measured by visual inspection of the sample. However, that kind of measurement is very subjective and depending on the observer. Therefore, the application of a small molecule indicator probe is much more advantageous. […] Enzymol.
The constant t0 is the time needed to reach 50% of maximum fluorescence. The two important parameters describing fibril formation are the lag-time calculated by t0−2τ and the apparent rate constant kapp 1/τ.
Samples were prepared freshly before each assay. […] The pH of the sample was adjusted to the desired value using appropriate amounts of concentrated NaOH and HCl. Thioflavin T was added to the samples from a stock solution in H2O to a final concentration of 1 μM.
The plate was sealed with Scotch Pad (Qiagen).
Each run was initiated by incubating the plate at the assay temperature for 10 min. The plate was measured every 20 minutes for a desired period of time. Between each measurement, the plate was shaken and heated as described.
The supernatant was filtered through a 0.22 μm filter and an aliquot was transferred to a HPLC vial.
The measurement points were saved in Microsoft Excel format for further processing and curve drawing and fitting was performed using GraphPad Prism. […] The data set may be fitted to Eq. (1).

Chain of glucagon receptor (P47871 26-477): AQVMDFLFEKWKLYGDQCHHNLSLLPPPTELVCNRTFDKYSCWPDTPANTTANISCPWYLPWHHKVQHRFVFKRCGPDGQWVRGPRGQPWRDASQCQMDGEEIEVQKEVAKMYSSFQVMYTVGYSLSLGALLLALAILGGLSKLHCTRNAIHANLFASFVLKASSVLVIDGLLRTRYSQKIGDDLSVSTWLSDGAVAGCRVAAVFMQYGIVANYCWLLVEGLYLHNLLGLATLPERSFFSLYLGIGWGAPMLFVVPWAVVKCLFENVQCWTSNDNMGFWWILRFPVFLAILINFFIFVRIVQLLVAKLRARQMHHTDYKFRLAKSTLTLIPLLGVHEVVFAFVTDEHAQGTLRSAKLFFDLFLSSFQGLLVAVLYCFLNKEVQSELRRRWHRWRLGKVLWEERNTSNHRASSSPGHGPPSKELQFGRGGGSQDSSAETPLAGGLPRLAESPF

Q: For `CC(C)C[C@H](NC(=O)[C@H](Cc1ccc(O)cc1)NC(=O)[C@H](CCCCN)NC(=O)[C@H](CO)NC(=O)[C@H](Cc1ccc(O)cc1)NC(=O)[C@H](CC(=O)O)NC(=O)[C@H](CO)NC(=O)[C@@H](NC(=O)[C@H](Cc1ccccc1)NC(=O)[C@@H](NC(=O)CNC(=O)[C@H](CCC(N)=O)NC(=O)[C@H](CO)NC(=O)[C@@H](N)Cc1c[nH]cn1)[C@@H](C)O)[C@@H](C)O)C(=O)N[C@@H](CC(=O)O)C(=O)N[C@@H](CO)C(=O)N[C@@H](CCCCN)C(=O)N[C@@H](CCCCN)C(=O)N[C@@H](C)C(=O)N[C@@H](CCC(N)=O)C(=O)N[C@@H](CCC(=O)O)C(=O)N[C@@H](Cc1ccccc1)C(=O)N[C@H](C(=O)N[C@@H](CCCCNC(=O)COCCOCCNC(=O)COCCOCCNC(=O)CC[C@H](NC(=O)CCCCCCCCCCCCCCC(=O)O)C(=O)O)C(=O)N[C@@H](Cc1c[nH]c2ccccc12)C(=O)N[C@@H](CC(C)C)C(=O)N[C@@H](CC(C)C)C(=O)N[C@@H](CO)C(=O)N[C@H](C(=O)O)[C@@H](C)O)C(C)C` [Example 69, N^ε24-[2-[2-[2-[[2-[2-[2-[[(4S)-4-carboxy-4-(15-carboxypentadecanoylamino)butanoyl]amino]ethoxy]ethoxy]acetyl]amino]ethoxy]ethoxy]acetyl]-[Lys^17,Lys^18,Glu^21,Lys^24,Leu^27,Ser^28]-Glucagon] (H-HSQGTFTSDYSKYLDSKKAQEFVK([AEEA-AEEA-γGlu-C16 diacid])WLLST-OH), which EC50 (glucagon receptor) is on record?
A: The EC50 was 6 pM.

Q: With `CC(C)C[C@H](NC(=O)[C@H](Cc1ccc(O)cc1)NC(=O)[C@H](CCCCN)NC(=O)[C@H](CO)NC(=O)[C@H](Cc1ccc(O)cc1)NC(=O)[C@H](CC(=O)O)NC(=O)[C@H](CO)NC(=O)[C@@H](NC(=O)[C@H](Cc1ccccc1)NC(=O)[C@@H](NC(=O)CNC(=O)[C@H](CCC(N)=O)NC(=O)[C@H](CO)NC(=O)[C@@H](N)Cc1c[nH]cn1)[C@@H](C)O)[C@@H](C)O)C(=O)N[C@@H](CC(=O)O)C(=O)N[C@@H](CO)C(=O)N[C@@H](CCCCN)C(=O)N[C@@H](CCCCN)C(=O)N[C@@H](C)C(=O)N[C@@H](CCC(N)=O)C(=O)N[C@@H](CCC(=O)O)C(=O)N[C@@H](Cc1ccccc1)C(=O)N[C@H](C(=O)N[C@@H](CCCCNC(=O)COCCOCCNC(=O)COCCOCCNC(=O)CC[C@H](NC(=O)CCCCCCCCCCCCCCCCCCC(=O)O)C(=O)O)C(=O)N[C@@H](Cc1c[nH]c2ccccc12)C(=O)N[C@@H](CC(C)C)C(=O)N[C@@H](CC(C)C)C(=O)N[C@@H](CC(N)=O)C(=O)N[C@H](C(=O)O)[C@@H](C)O)C(C)C` [Example 66, N^ε24-[2-[2-[2-[[2-[2-[2-[[(4S)-4-carboxy-4-(19-carboxynonadecanoylamino)butanoyl]amino]ethoxy]ethoxy]acetyl]amino]ethoxy]ethoxy]acetyl]-[Lys^17,Lys^18,Glu^21,Lys^24,Leu^27]-Glucagon] (H-HSQGTFTSDYSKYLDSKKAQEFVK([AEEA-AEEA-γGlu-C20 diacid])WLLNT-OH) as the molecule, how does the EC50 (glucagon receptor) read?
A: The EC50 was 6350 pM.

Q: What does the source list for `CC(C)C[C@H](NC(=O)[C@H](Cc1ccc(O)cc1)NC(=O)[C@H](CCCCN)NC(=O)[C@H](CO)NC(=O)[C@H](Cc1ccc(O)cc1)NC(=O)[C@H](CC(=O)O)NC(=O)[C@H](CO)NC(=O)[C@@H](NC(=O)[C@H](Cc1ccccc1)NC(=O)[C@@H](NC(=O)CNC(=O)[C@H](CCC(N)=O)NC(=O)[C@H](CO)NC(=O)[C@@H](N)Cc1c[nH]cn1)[C@@H](C)O)[C@@H](C)O)C(=O)N[C@@H](CC(=O)O)C(=O)N[C@@H](CO)C(=O)N[C@@H](CCCCN)C(=O)N[C@@H](CCCCN)C(=O)N[C@@H](C)C(=O)N[C@@H](CCC(N)=O)C(=O)N[C@@H](CCC(=O)O)C(=O)N[C@@H](Cc1ccccc1)C(=O)N[C@H](C(=O)N[C@@H](CCC(N)=O)C(=O)N[C@@H](Cc1c[nH]c2ccccc12)C(=O)N[C@@H](CC(C)C)C(=O)N[C@@H](CC(C)C)C(=O)N[C@@H](CC(N)=O)C(=O)N[C@H](C(=O)O)[C@@H](C)O)C(C)C` [[K^17, K^18, E^21, L^27] Glucagon, H—HSQGTFTSDYSKYLDSKKAQEFVQWLLNT—OH, reference compound] (H-HSQGTFTSDYSKYLDSKKAQEFVQWLLNT-OH)?
A: ThT assay [Lag time] [1]: 1 h; EC50 (glucagon receptor): 3 pM
